Measurements: patent US7507555B2, “Probe for detecting and quantifying lipid second messenger and method of detecting and quantifying lipid second messenger using the same” (Japan Science and Technology Agency, priority 2003, dated 2009)

Tests used:
[1] = system: PIP3; experiment: CFP/YFP emission ratio time course after PDGF stimulation of probe-expressing CHO-PDGFR cells; type: cell-based, Chinese hamster; settings: for PIP3 in plasma membranes and endomembranes: stimulation by other peptide ligands instead of PDGF
Protocol: Ovarian cells of Chinese hamster (CHO) were cultured in Ham's F-12 medium supplemented with 10% fetal calf serum (FCS) at 37° C. in 5% CO2. The resulting CHO-PDGFR cells were plated onto glass-bottomed dishes, each of Fllip-pm, Fllip-pmR284C, Fllip-del and Fllip-em expression vectors were transfected with LipofectAMINE2000 reagent (manufactured by Life Technology) and left for 24 hours at 37° C. in 5% CO2.
After serum starvation with serum-free incubating medium, the medium was replaced with a Hank's balanced salt solution. Then, in accordance with a method already reported by the inventors (such as Non-Patent Documents 12 and 13), the cells were imaged at room temperature on a Carl Zeiss Axiovert 135 microscope with a cooled CCD camera, MicroMAX (Roper Scientific lnc, Tucson, Ariz.), controlled by MetaFluor. (Universal Imaging, West Chester, Pa.). The fluorescence images were obtained through 480±15 nm and 535±12.5 nm filters with a 40× oil immersion objective (Carl Zeiss, Jena, Germany). YFP images were detected by a confocal laser scanning microscope LSM 510 (Carl Zeiss).
Response of Fllip-pm to PIP3 produced by physiological stimulation was examined.
Fllip-pm was expressed in CHO-PDGFR cells stably expressing platelet-derived growth factor receptor (PDGFR). PDGF treatment promotes dimerization of PDGFR that results in phosphorylation of multiple tyrosine residues of PDGFR and its activation. PI3K is recruited to these tyrosine phosphorylation sites through its Src-homology 2 (SH2) domain, resulting in its activation (Schlessinger, J. (2000), Cell, 103, 211-225).
The time course of CFP/YFP-emission ratio when PDGF (50 ng/mL) was added to a cell expressing Fllip-pm at plasma membrane are shown in FIG. 6 and FIG. 7.
According to the same method as in Examples 4 and 5, response of Fllip-pmR284C, of which PHD was mutated not to bind to PIP3, was examined.
Fllip-em was expressed in the CHO-PDGFR cells by the same method as in Example 2. After that, the cells were stimulated with PDGF by the same method as in Example 5 and the time course of CFP/YFP emission ratio was measured.

[2] = system: C1B domain derived from PKC; experiment: Response of DAG-fllip-pm and DAG-fllip-em to phorbol ester (PMA); type: cell-based; settings: phorbol ester (PMA) added
Protocol: It has been known that C1B domain derived from PKC is selectively bound to DAG. Therefore, this domain was selected as an LBD and the lipid second messenger detecting- and quantifying-probe (hereinafter, referred to as DAG-Fllip) was prepared. Localization domains to the plasma membrane and endomembranes are linked with DAG-fllip to prepare DAG-fllip-pm and DAG-fllip-em. After that, in order to confirm whether the DAG-fllip-pm and the DAG-fllip-em respond to DAG, the DAG-fllip-pm and the DAG-fllip-em were evaluated by using phorbol ester (PMA), which is a substance having a membrane permeability, and specifically bound to C1B domain.

[3] = PDGF 50 ng/mL, Fllip-pm at plasma membrane of CHO-PDGFR cells

Molecule: PDGF
- CFP/YFP emission ratio [1, 3]: decreased immediately
- time for CFP/YFP emission ratio to reach a plateau [1, 3]: 300 s
- extent of PIP3 increase in the endomembranes relative to that in the plasma membrane ([1]; upon PDGF stimulation): twice to three times

Molecule: insulin: other peptide ligand
- PIP3 in plasma membranes and endomembranes [1]: induced the PIP3 increase

Molecule: CCCCCCCCCCCCCC(=O)O[C@@H]1[C@@H](C)[C@@]2(O)[C@@H](C=C(CO)C[C@]3(O)C(=O)C(C)=C[C@@H]23)[C@@H]2C(C)(C)[C@]12OC(C)=O [phorbol ester]
- fluorescence intensity ratio (CFP/YFP) of DAG-fllip-em [2]: decreased
- fluorescence intensity ratio (CFP/YFP) of DAG-fllip-pm [2]: decreased

Molecule: epidermal growth factors: other peptide ligand
- PIP3 in plasma membranes and endomembranes [1]: induced the PIP3 increase
